# In US20140120060A1, “TREATMENT OF RHEUMATOID ARTHRITIS AND ASTHMA USING PI3 KINASE INHIBITORS” (INFINITY PHARMACEUTICALS, INC., priority 2012, published 2014):
# Where “and” joins values, the source holds several entries; their conditions need not be identical. Equal values may be shown once. Entries after “also recorded” stand apart in the source; their conditions may differ. Read-outs that look alike come from different tables or passages of the source. Marks after values point to notes of the source that are not given here.
# Columns and labels:
# Human B-cell = Human B-cell proliferation; assay type: cell-based
# Human T-cell = Human T-cell proliferation; assay type: cell-based
# [1] = tested on: established type II collagen-induced arthritis; assay: Rat collagen-induced arthritis model (established); assay type: in vivo
# Protocol: Etanercept (10 mg/kg) was administered subcutaneously on days 10 and 13 as a positive control. The study was terminated on day 17.
# [2] = tested on: LPS-induced pulmonary inflammation; assay: Murine model of LPS-induced lung inflammation; assay type: in vivo, mice; details: 3 mg/kg PO 60 minutes prior to LPS; 6 h after challenge
# Protocol: Multiple parameters of pulmonary inflammation were determined 6 h after LPS challenge. Instillation of LPS induced significant influx of leukocytes, mostly neutrophils, into the airways, as assessed by counting the number of cells in the bronchoalveolar lavage (BAL) fluid.
# neutrophil migration = assay: Neutrophil migration into rat air pouches stimulated with IL-8; assay type: in vivo
# Text: In one embodiment, provided herein is a method for screening for anti-inflammatory or anti-asthma compound in an animal (e.g., rat) pouch assay. In one embodiment, provided herein is a method for screening for anti-inflammatory or anti-asthma compound comprising (a) creating a pouch at the back of an animal (e.g., rat) and introducing a stimuli into the pouch; (b) administrating a compound to the animal; (c) measuring the influx of leukocyte (e.g., neutrophil and/or eosinophil) into the pouch; and (d) comparing the influx of leukocyte to that of a control vehicle; wherein a reduction in the influx of leukocyte indicates the compound is an anti-inflammatory or anti-asthma compound.
# The ability of PI3K-δ,γ inhibitors to block leukocyte (e.g., neutrophil) migration was examined in a rat air pouch model. Air pouches were created by subcutaneous air injections into the back of the rats on Days 0 and 3. […] Animals dosed with vehicle only, with or without IL-8 stimulation, served as study controls.
# [3] = Pharmacokinetics in Beagle dogs; assay type: in vivo, dog; details: PO 5 mg/kg
# [4] = Pharmacokinetics in cynomolgus monkeys; assay type: in vivo, monkey
# human P-glycoprotein = target: T1, human P-glycoprotein (Homo sapiens, UniProt P08183); assay: Interaction with human P-glycoprotein in Caco-2 cell monolayers; assay type: in vitro ADME
# T1 construct: endogenous in cells; host or cells: Caco-2 cell monolayers
# [5] = 13-week repeat-dose safety study in cynomolgus monkeys; details: both sexes, cynomolgus monkey, in vivo, oral, Day 91, combined sexes, 5 mg/kg/day, read-out: mean AUC0-24 hr at the NOAEL
# Protocol: The no observed adverse effect level (NOAEL) in the 13-week rat study was 25 mg/kg/day (150 mg/m^2/day) and the NOAEL in the 13-week monkey study was 5 mg/kg/day (60 mg/m^2/day). On Day 91, the mean AUC0-24 hr values for combined sexes at the NOAELs were 14150 ng*h/mL in the rat, and 4015 ng*h/mL in the monkey.
# [6] = Embryo/fetal developmental toxicity study in rats; details: female, rat, in vivo; pregnant rats, last day of dosing, 35 mg/kg/day; read-out: mean AUC0-24 hr at the NOAEL
# [7] = Clinical study in healthy adult subjects: pharmacokinetics; assay type: in vivo, human; details: for half-life / AUC(0-t) / AUC(0-inf) / Cmax / Vd/F: human, plasma; for Vd/F: read-out: Vz/F
# [8] = In vivo rat micronucleus assay
# respiratory system = assay: Respiratory study in Sprague-Dawley rat; details: male rats, single oral dose up to 350 mg/kg
# central nervous system = assay: Neurofunctional study (FOB, motor activity) in Sprague-Dawley rat; details: male rats
# PI3K δ = PI3K δ (Homo sapiens, UniProt O00329); assay: Clinical study in healthy adult subjects: basophil activation (CD63 on CCR3+ basophils); assay type: in vivo; set-up: from tissue; host or cells: blood basophils (CCR3+) of healthy adult subjects
# [9] = monkey, in vivo, cynomolgus monkeys, IV 1 mg/kg
# [10] = monkey, in vivo, cynomolgus monkeys, PO 5 mg/kg suspension
# [11] = DDI portion, 10 mg with 200 mg q12h ketoconazole
# [12] = single oral dose 1 mg, mean (%CV)
# [13] = single oral dose 2 mg, mean (%CV)
# [14] = single oral dose 5 mg, mean (%CV)
# [15] = single oral dose 10 mg, mean (%CV)
# [16] = single oral dose 20 mg, mean (%CV)
# [17] = single oral dose 30 mg, mean (%CV)
# Sequence of PI3K δ (O00329 whole entry): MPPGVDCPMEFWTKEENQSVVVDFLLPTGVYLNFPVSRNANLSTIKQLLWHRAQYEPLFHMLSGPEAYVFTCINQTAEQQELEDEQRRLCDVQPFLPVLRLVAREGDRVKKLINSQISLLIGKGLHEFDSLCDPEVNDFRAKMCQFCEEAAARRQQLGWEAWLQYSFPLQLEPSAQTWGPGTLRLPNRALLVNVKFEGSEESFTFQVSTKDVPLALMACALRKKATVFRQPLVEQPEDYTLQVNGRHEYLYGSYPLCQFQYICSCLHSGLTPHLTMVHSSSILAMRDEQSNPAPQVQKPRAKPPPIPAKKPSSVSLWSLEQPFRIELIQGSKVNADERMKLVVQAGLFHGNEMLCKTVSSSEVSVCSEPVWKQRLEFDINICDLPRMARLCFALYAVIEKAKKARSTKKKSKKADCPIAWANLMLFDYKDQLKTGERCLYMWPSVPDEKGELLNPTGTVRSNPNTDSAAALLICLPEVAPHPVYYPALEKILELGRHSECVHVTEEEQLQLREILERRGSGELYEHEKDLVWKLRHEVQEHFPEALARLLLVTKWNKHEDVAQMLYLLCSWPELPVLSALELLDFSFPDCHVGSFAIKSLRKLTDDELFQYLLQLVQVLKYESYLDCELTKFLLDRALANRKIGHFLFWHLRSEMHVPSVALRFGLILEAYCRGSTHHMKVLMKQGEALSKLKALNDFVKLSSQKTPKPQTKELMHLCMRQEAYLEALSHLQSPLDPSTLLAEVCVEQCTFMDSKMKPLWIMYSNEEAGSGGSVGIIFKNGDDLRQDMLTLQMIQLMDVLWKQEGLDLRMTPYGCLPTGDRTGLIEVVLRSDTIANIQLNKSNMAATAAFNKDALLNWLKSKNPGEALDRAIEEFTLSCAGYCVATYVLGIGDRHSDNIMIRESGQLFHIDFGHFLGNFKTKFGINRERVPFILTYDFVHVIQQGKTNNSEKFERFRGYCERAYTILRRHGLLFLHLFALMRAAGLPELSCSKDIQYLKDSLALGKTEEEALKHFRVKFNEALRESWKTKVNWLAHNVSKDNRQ
# Sequence of PI3K δ (P27986 whole entry partner): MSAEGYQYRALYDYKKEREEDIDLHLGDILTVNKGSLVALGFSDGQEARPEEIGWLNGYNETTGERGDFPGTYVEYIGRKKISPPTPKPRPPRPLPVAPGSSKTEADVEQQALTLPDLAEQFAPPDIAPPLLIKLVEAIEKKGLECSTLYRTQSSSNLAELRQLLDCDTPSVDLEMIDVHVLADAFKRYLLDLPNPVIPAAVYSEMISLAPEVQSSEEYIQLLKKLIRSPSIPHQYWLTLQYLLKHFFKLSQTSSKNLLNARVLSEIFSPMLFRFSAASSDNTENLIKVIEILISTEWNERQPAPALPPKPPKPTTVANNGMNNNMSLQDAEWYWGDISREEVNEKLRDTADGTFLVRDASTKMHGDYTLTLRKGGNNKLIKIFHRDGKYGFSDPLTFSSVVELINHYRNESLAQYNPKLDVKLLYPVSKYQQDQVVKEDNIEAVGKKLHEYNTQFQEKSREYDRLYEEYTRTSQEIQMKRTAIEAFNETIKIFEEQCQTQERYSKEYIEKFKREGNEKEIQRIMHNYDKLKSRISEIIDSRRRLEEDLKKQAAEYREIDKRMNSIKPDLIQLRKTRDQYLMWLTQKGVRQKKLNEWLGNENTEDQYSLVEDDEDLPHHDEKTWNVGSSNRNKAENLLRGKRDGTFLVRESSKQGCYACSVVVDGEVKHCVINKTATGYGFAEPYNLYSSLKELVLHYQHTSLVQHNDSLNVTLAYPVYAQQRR
# T1 sequence (P08183 whole entry): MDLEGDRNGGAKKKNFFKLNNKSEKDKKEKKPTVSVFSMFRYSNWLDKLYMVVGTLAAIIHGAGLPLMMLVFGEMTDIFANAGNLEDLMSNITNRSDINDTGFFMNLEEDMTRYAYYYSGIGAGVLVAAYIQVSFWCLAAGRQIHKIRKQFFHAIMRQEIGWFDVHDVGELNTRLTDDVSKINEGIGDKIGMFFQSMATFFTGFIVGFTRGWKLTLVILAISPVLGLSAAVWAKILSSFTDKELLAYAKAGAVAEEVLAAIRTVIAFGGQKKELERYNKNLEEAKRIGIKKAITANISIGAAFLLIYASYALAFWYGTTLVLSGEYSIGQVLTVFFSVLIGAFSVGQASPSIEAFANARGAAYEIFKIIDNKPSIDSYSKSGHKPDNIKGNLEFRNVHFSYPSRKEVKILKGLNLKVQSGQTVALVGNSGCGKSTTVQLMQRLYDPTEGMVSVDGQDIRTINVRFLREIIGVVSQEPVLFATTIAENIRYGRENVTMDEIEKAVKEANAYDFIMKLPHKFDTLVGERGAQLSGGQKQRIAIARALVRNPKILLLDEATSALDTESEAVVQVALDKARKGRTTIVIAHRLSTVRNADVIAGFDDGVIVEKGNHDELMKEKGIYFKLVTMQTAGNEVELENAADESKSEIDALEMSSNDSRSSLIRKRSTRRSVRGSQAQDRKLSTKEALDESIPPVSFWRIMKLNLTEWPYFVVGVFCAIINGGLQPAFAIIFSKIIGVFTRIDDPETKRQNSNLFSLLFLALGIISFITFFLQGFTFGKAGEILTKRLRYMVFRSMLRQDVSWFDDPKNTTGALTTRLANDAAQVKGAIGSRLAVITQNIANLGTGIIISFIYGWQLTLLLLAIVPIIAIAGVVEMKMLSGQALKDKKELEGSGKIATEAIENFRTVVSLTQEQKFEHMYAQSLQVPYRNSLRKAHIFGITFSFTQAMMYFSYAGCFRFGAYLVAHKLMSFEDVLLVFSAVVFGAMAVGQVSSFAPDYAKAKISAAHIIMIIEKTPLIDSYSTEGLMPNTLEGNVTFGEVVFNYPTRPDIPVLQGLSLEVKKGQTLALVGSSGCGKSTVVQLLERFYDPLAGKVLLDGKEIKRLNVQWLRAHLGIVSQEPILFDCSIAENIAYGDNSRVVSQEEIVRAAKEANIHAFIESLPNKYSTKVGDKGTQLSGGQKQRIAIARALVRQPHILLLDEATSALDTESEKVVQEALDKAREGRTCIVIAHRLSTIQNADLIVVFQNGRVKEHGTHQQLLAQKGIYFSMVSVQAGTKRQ
smiles,measurement,setting,value
C[C@H](Nc1ncnc2[nH]cnc12)c1cc2cccc(Cl)c2c(=O)n1-c1ccccc1 [Compound 292],EC50,Human B-cell,0.5 nM
same,EC50,Human T-cell,9.5 nM
same,mean ankle diameter at the end of the treatment period vs vehicle,"[1]; PO QD days 10-16, all doses 0.5-10 mg/kg, not at 0.1 mg/kg",significantly decreased
same,serum IgE levels vs vehicle controls,[1]; rat CIA model,Significant increases
same,summed ankle histological scores,[1]; rat CIA model,prevented inflammation and protected joint bone and cartilage
same,LPS-induced total leukocyte and neutrophil influx in BAL fluid,[2],inhibited
same,neutrophil influx into IL-8 stimulated air pouches,neutrophil migration; 1 mg/kg PO,only slightly
same,neutrophil influx into IL-8 stimulated air pouches,neutrophil migration; 10 and 25 mg/kg PO,inhibits; also recorded: significantly blocked
same,Foral,[3]; calculated using 0.5 mg/kg IV dose as reference and AUC0-last,"97^g,i %"
same,Foral,[3]; calculated using 1 mg/kg IV dose as reference and AUC0-last,"40% and 40^h,i %"
same,Foral,"[4]; cynomolgus monkeys, PO 5 mg/kg suspension",40%
same,AUC(0-inf),[4]; [9],2380 ng·h/mL
same,AUC(0-t),[4]; [9],2360 ng·h/mL
same,Tmax,[4]; [9],0.083 h
same,clearance,[4]; [9],7.17 mL/min/kg
same,half-life,"[4]; monkey, in vivo, cynomolgus monkeys, IV 1 mg/kg, read-out: T1/2 (converted)",5 h
same,Vd,"[4]; monkey, in vivo, cynomolgus monkeys, IV 1 mg/kg, read-out: Vss",1.27 L/kg
same,AUC(0-inf),[4]; [10],4680 ng·h/mL
same,AUC(0-t),[4]; [10],4600 ng·h/mL
same,Cmax,[4]; [10],1330 ng/mL
same,Tmax,[4]; [10],1.5 h
same,half-life,"[4]; monkey, in vivo, cynomolgus monkeys, PO 5 mg/kg suspension, read-out: T1/2 (converted)",5.4 h
same,half-life,"[4]; monkey, in vivo, monkeys, read-out: half-life (converted)",5 h
same,P-gp substrate status,human P-glycoprotein,is a P-gp substrate
same,inhibition of active transport of other P-gp substrates,human P-glycoprotein,has the potential to inhibit the active transport of other P-gp substrates
same,AUC(0-t),[5],4020 ng·h/mL
same,AUC(0-t),[6],62200 ng·h/mL
same,excretion of unchanged compound in urine,[7],< 2 % of the administered dose
same,time to peak plasma concentrations,[7],0.5 to 1 h
same,accumulation,[7]; 14 days of Q12 h oral administration,less than 2 fold
same,increase of AUC0-inf in the presence of ketoconazole,[7]; [11],~295%
same,increase of AUC0-last in the presence of ketoconazole,[7]; [11],~285%
same,increase of Cmax in the presence of ketoconazole,[7]; [11],approximately 66%
same,decrease of Cmax in the presence of a high fat meal,"[7]; food effect portion, 25 mg",approximately 10%
same,half-life,"[7]; oral, following a single dose, read-out: half-life",3.5 to 9.5 h
same,AUC(0-t),"[7]; po, 1 mg, single oral dose 1 mg, mean (%CV), read-out: AUC(0-24)",149 ng·h/mL
same,AUC(0-t),"[7]; po, 1 mg, single oral dose 1 mg, mean (%CV), read-out: AUC(0-t)",148 ng·h/mL
same,half-life,"[7]; po, 1 mg, single oral dose 1 mg, mean (%CV), read-out: T1/2 (converted)",3.52 h
same,AUC(0-t),"[7]; po, 2 mg, single oral dose 2 mg, mean (%CV), read-out: AUC(0-24)",289 ng·h/mL
same,AUC(0-t),"[7]; po, 2 mg, single oral dose 2 mg, mean (%CV), read-out: AUC(0-t)",291 ng·h/mL
same,half-life,"[7]; po, 2 mg, single oral dose 2 mg, mean (%CV), read-out: T1/2 (converted)",5.43 h
same,AUC(0-t),"[7]; po, 5 mg, single oral dose 5 mg, mean (%CV), read-out: AUC(0-24)",733 ng·h/mL
same,AUC(0-t),"[7]; po, 5 mg, single oral dose 5 mg, mean (%CV), read-out: AUC(0-t)",735 ng·h/mL
same,half-life,"[7]; po, 5 mg, single oral dose 5 mg, mean (%CV), read-out: T1/2 (converted)",5.43 h
same,AUC(0-t),"[7]; po, 10 mg, single oral dose 10 mg, mean (%CV), read-out: AUC(0-24)",891 ng·h/mL
same,AUC(0-t),"[7]; po, 10 mg, single oral dose 10 mg, mean (%CV), read-out: AUC(0-t)",905 ng·h/mL
same,half-life,"[7]; po, 10 mg, single oral dose 10 mg, mean (%CV), read-out: T1/2 (converted)",9.47 h
same,AUC(0-t),"[7]; po, 20 mg, single oral dose 20 mg, mean (%CV), read-out: AUC(0-24)",2190 ng·h/mL
same,AUC(0-t),"[7]; po, 20 mg, single oral dose 20 mg, mean (%CV), read-out: AUC(0-t)",2240 ng·h/mL
same,half-life,"[7]; po, 20 mg, single oral dose 20 mg, mean (%CV), read-out: T1/2 (converted)",7.79 h
same,AUC(0-t),"[7]; po, 30 mg, single oral dose 30 mg, mean (%CV), read-out: AUC(0-24)",3260 ng·h/mL
same,AUC(0-t),"[7]; po, 30 mg, single oral dose 30 mg, mean (%CV), read-out: AUC(0-t)",3380 ng·h/mL
same,half-life,"[7]; po, 30 mg, single oral dose 30 mg, mean (%CV), read-out: T1/2 (converted)",8.12 h
same,AUC(0-inf),[7]; [12],151 ng·h/mL
same,Cmax,[7]; [12],43.4 ng/mL
same,Vd/F,[7]; [12],38.8 L
same,AUC(0-inf),[7]; [13],296 ng·h/mL
same,Cmax,[7]; [13],78.8 ng/mL
same,Vd/F,[7]; [13],57.9 L
same,AUC(0-inf),[7]; [14],743 ng·h/mL
same,Cmax,[7]; [14],246 ng/mL
same,Vd/F,[7]; [14],53 L
same,AUC(0-inf),[7]; [15],914 ng·h/mL
same,Cmax,[7]; [15],454 ng/mL
same,Vd/F,[7]; [15],147 L
same,AUC(0-inf),[7]; [16],2250 ng·h/mL
same,Cmax,[7]; [16],997 ng/mL
same,Vd/F,[7]; [16],99.1 L
same,AUC(0-inf),[7]; [17],3400 ng·h/mL
same,Cmax,[7]; [17],1140 ng/mL
same,Vd/F,[7]; [17],113 L
same,adverse effect in micronucleus assay,[8],no direct adverse effect
same,"respiratory parameters (respiratory rate, tidal volume, minute volume)",respiratory system,no Compound 292-related effects
same,locomotor activity,central nervous system; 2 h after a 350 mg/kg dose,Significant decreases
same,effects on the central nervous system,central nervous system; dose levels ≦50 mg/kg,No effects
same,qualitative or quantitative FOB parameters,"central nervous system; single oral dose up to 350 mg/kg, up to 24 h post-dose",no changes
same,Emax (reduction of basophil activation vs plasma concentration),PI3K δ; FIG. 21,85%
same,basophil activation,"PI3K δ; single and multiple doses, all dose levels, maximum at 1 hr post dose",dose-dependent reduction
